Reference: US7820645B2, “Crystalline forms” (AstraZeneca AB, priority 2006, dated 2010)
pIC50: −log10 of the molar value. Values after ≈ are worked out from the molar mass of the structure shown. Read-outs that look alike come from different tables or passages of the source.

How the values were obtained:
[1] = Solubility in organic solvents (gravimetric, saturated solution from one-day slurry); assay type: physicochemical; conditions: for solubility at 1 day: organic solvent or mixture, thermodynamic from solid, 22° C.
Procedure: An excess of Compound A from Example 3 above was slurried in ethyl acetate for one day. A proportion of the saturated solution was then withdrawn through a 0.5 micrometer filter to a pre-weighted E-flask. The E-flask was weighed and then opened & evaporated in air, and then dried in vacuum at 40° C. until the weight was constant. The weight of the solution, the weight of dry substance, the weight of solvent and the volume of solvent were determined (using the density of ethyl acetate at 22° C.=0.90 g/ml).
(§1) An excess of Compound B from Example 2 above was slurried in isopropanol for one day in a closed vessel. A proportion of the saturated solution was then withdrawn through a 0.5 micrometer filter to a pre-weighted E-flask. The E-flask was weighed and then opened & evaporated in air, and then dried in vacuum at 70° C. until the weight was constant. The weight of the solution, the weight of dry substance, the weight of solvent and the volume of solvent were determined (using the density of isopropanol at 22° C.=0.79 g/ml).
as §1, with “Compound A” for “Compound B”, “Example 6” for “Example 2”
(§2) An excess of Compound A from Example 6 above was slurried in ethanol for one day in a closed vessel. A proportion of the saturated solution was then withdrawn through a 0.5 micrometer filter to a pre-weighed E-flask. The E-flask was weighed and then opened and evaporated in air, and then dried in vacuum at 40-50° C. until the weight was constant. The weight of the solution, the weight of dry substance, the weight of solvent and the volume of solvent were determined (using the density of ethanol at 22° C.=0.79 g/ml).
as §2, with “in methanol” for “in ethanol”, “a pre-weighted” for “a pre-weighed”, “opened &” for “opened and”, “of methanol” for “of ethanol”
as §1, with “Compound A” for “Compound B”, “Example 6” for “Example 2”, “in acetone” for “in isopropanol”, “of acetone” for “of isopropanol”, “22° C.=0.82” for “22° C.=0.79”

thrombin [2] = molecular target: T1, thrombin (Homo sapiens, UniProt P00734); conditions: Test D of WO 02/44145; disclosed in Example 47 of WO 02/44145; cited from earlier work
thrombin [3] = molecular target: T1, thrombin; conditions: Test A of WO 02/44145; disclosed in Example 46 of WO 02/44145; cited from earlier work
[4] = isopropanol, Compound B from Example 2 or Compound A anhydrate from Example 6
[5] = isopropanol, Compound B from Example 2 or Compound A anhydrate from Example 6, read-out: solubility (mg per ml isopropanol)

Row | Structure (SMILES) | solubility as weight % ([1]; acetone, Compound A from Example 6) [% w/w] | solubility as weight % ([1]; ethanol, Compound A from Example 6) [% w/w] | solubility as weight % ([1]; ethyl acetate, Compound A from Example 3) [% w/w] | solubility as weight % [1, 4] [% w/w] | solubility as weight % ([1]; methanol, Compound A from Example 6) [% w/w] | solubility at 1 day ([1]; acetone, Compound A from Example 6, read-out: solubility (mg per ml acetone)) [mg/mL] | solubility at 1 day ([1]; ethanol, Compound A from Example 6, read-out: solubility (mg per ml ethanol)) [mg/mL] | solubility at 1 day ([1]; ethyl acetate, Compound A from Example 3, read-out: solubility (mg per ml ethyl acetate)) [mg/mL] | solubility at 1 day [1, 5] [mg/mL] | solubility at 1 day ([1]; methanol, Compound A from Example 6, read-out: solubility (mg per ml methanol)) [mg/mL] | pIC50 (thrombin [2]) | pIC50 (thrombin [3])
1 | CO/N=C(\N)c1ccc(CNC(=O)[C@@H]2CCN2C(=O)[C@H](O)c2cc(Cl)cc(OC(F)F)c2)cc1 [Compound A, Ph(3-Cl)(5-OCHF2)—(R)CH(OH)C(O)-Aze-Pab(OMe)] | 33 | 10 | 4 | 2 | 45 | 398 (≈ 801 mM) | 87 (≈ 175 mM) | 36 (≈ 72.4 mM) | 15 (≈ 30.2 mM) | 655 (≈ 1320 mM) |  | 
2 | N/C(=N\O)c1ccc(CNC(=O)[C@@H]2CCN2C(=O)[C@H](O)c2cc(Cl)cc(OC(F)F)c2)cc1 [Compound B, Ph(3-Cl)(5-OCHF2)—(R)CH(OH)C(O)-Aze-Pab(OH)] |  |  |  | 0.4 |  |  |  |  | 3 (≈ 6.21 mM) |  |  | 
3 | N=C(N)c1ccc(CNC(=O)[C@@H]2CCN2C(=O)[C@H](O)c2cc(Cl)cc(OC(F)F)c2)cc1 [Compound C] |  |  |  |  |  |  |  |  |  |  | > 6.00 | > 7.70
